The values that follow come from patent US12215112B2, “CD151 inhibitors” (ESFAM BIOTECH PTY LTD, priority 2020, dated 2025).

Structures are written as SMILES.

The assay deals with PC3 cells. Description: xCELLigence RTCA real-time cell invasion assay (CIM plate, Matrigel) on PC3 prostate cancer cells. In kind it is cell-based. To be noted: Homo sapiens, PC-3, compound 25 uM to 1 uM, cell index monitored for 72 hours, four-parameter dose-response curve, read-out: IC50, Effect of compounds on the invention on prostate cancer cells. The protocol:
The media antibiotics and serum were purchased from Invitrogen (Life Technologies). PC3 cells were purchased from ATCC (Granville, NSW, Australia). PC3 cells were expanded in cell culture T75 flasks with vented cap and then preserved in low passage number. The medium used for PC3 cells was RPMI (GlutaMAX) supplemented with 10% FCS and 1% penicillin/streptomycin (culture media). The cells were maintained at 37° C. in a humidified 95% (v/v) air/5% (v/v) CO2 environment and were grown up to 80% confluence.
XCELLigence® real-time cell analysis (RTCA) instrument (ACEA Biosciences), 16-well ACEA CIM-Plates, 16-well ACEA E-Plat and assembly tool were purchased from ELITechGroup empowering IVD (Braeside, Australia). The Matrigel was purchased from Corning (Australia).
To measure cell invasion under compound treatment the upper chamber of the CIM plate was coated with 5% Matrigel diluted in SF RPMI (20 μl) and incubated in a 37° C. tissue culture incubator for four hours. Using the assembly tool to support the chambers the lower chamber was filled with (160 μl) of culture media containing the compound in specific concertation from 25 uM to 1 uM and two controls (DMSO 0.1% and ESFAM 4C 10 uM) (see the schematic in FIG. 1). Once the upper chamber was placed on the top of the lower chamber it was loaded with (40 μl) serum-free (SF) RPMI containing the compound as previously stated. After one hour calibration in 37° C., plates were placed into the xCELLigence station, and the base-line electric impedance was measured to confirm that all wells and connections were working properly. In case of connection problem, the software automatically informs the researcher about the nature of the problem in the message section. Subsequently cells were trypsinized and upon harvesting and counting they were diluted in SF RPMI to desired density (3×10^4) and seeded (100 μl) in the wells. After 30 minutes of incubation in room-temperature to allow cell attachment the plates were loaded in the xCELLigence RTCA DP machine. The cell invasion was monitored in real-time for the duration of 72 hours. […]
The xCELLigence system automatically monitored the electrical impedance value of each well and expressed as a cell index (CI) value for the duration of 72 hours. The data for treatments was automatically grouped as the mean±standard deviation. The software version used in these experiments is 1.2.1. The electronic record of the experimental data is automatically saved in file that cannot be altered or changed by the researcher.
Statistical analysis was performed using Microsoft® Office EXCEL and GraphPad Prism 7. The IC50 was calculated from the four-parameter dose-response curve (log(inhibitor) vs. response-variable slopes). Where the row-data was inserted in GraphPad Prism 7 (Dose response x-log(dose)) and analysed for XY nonlinear regression (curve fit), dose response-inhibition, log(inhibitor) vs response variable slope (four parameters). For the IC90 calculation the log(IC50)=log(IC90)-(1/HillSlope)*log(9) equation was used in EXCEL based on the raw data extracted from xCELLigence system and the dose-response curve.
For the compound `COc1cc(NC(=O)c2cc3nc(N4Cc5ccccc5C4)cc(-c4cn[nH]c4)n3n2)ccc1Cl` [Compound 53, N-(4-chloro-3-methoxyphenyl)-5-(isoindolin-2-yl)-7-(1H-pyrazol-4-yl)pyrazolo[1,5-a]pyrimidine-2-carboxamide], the IC50 was determined as 2.76 µM.
On to `COc1ccc(NC(=O)c2cc3nc(N4Cc5ccccc5C4)cc(-c4cn[nH]c4)n3n2)cc1` [Compound 54, 5-(isoindolin-2-yl)-N-(4-methoxyphenyl)-7-(1H-pyrazol-4-yl)pyrazolo[1,5-a]pyrimidine-2-carboxamide], for which the IC50 was 1.65 µM.
As for `CCOc1ccc(NC(=O)c2cc3nc(N4Cc5ccccc5C4)cc(-c4cn[nH]c4)n3n2)cc1` [Compound 55, N-(4-ethoxyphenyl)-5-(isoindolin-2-yl)-7-(1H-pyrazol-4-yl)pyrazolo[1,5-a]pyrimidine-2-carboxamide], the IC50 turned out to be 7.86 µM.
On to `CC(C)Oc1ccc(NC(=O)c2cc3nc(N4Cc5ccccc5C4)cc(-c4cn[nH]c4)n3n2)cc1` [Compound 56, 5-(isoindolin-2-yl)-N-(4-isopropoxyphenyl)-7-(1H-pyrazol-4-yl)pyrazolo[1,5-a]pyrimidine-2-carboxamide], for which the IC50 is 2.83 µM.
Next, `COc1cccc(NC(=O)c2cc3nc(N4Cc5ccccc5C4)cc(-c4cnn(C)c4)n3n2)c1` [Compound 57, 5-(isoindolin-2-yl)-N-(3-methoxyphenyl)-7-(1-methyl-1H-pyrazol-4-yl)pyrazolo[1,5-a]pyrimidine-2-carboxamide]: 2.59 µM.
With `Cn1cc(-c2cc(N3Cc4ccccc4C3)nc3cc(C(=O)Nc4cccc(O)c4)nn23)cn1` [Compound 58, N-(3-hydroxyphenyl)-5-(isoindolin-2-yl)-7-(1-methyl-1H-pyrazol-4-yl)pyrazolo[1,5-a]pyrimidine-2-carboxamide], the IC50 stood at 10.1 µM.
Next, `COc1cccc(NC(=O)c2cc3nc(N4Cc5ccccc5C4)cc(-c4c(C)nn(C)c4C)n3n2)c1` [Compound 59, 5-(isoindolin-2-yl)-N-(3-methoxyphenyl)-7-(1,3,5-trimethyl-1H-pyrazol-4-yl)pyrazolo[1,5-a]pyrimidine-2-carboxamide]: 4.38 µM; `Cc1nn(C)c(C)c1-c1cc(N2Cc3ccccc3C2)nc2cc(C(=O)Nc3cccc(O)c3)nn12` [Compound 60, N-(3-hydroxyphenyl)-5-(isoindolin-2-yl)-7-(1,3,5-trimethyl-1H-pyrazol-4-yl)pyrazolo[1,5-a]pyrimidine-2-carboxamide]: 7.39 µM.
Take `COc1cccc(NC(=O)c2cc3nc(N4Cc5ccc(Cl)cc5C4)cc(-c4cn[nH]c4)n3n2)c1` [Compound 61, 5-(5-chloroisoindolin-2-yl)-N-(3-methoxyphenyl)-7-(1H-pyrazol-4-yl)pyrazolo[1,5-a]pyrimidine-2-carboxamide]: the IC50 stood at 3.68 µM.
`O=C(Nc1cccc(O)c1)c1cc2nc(N3Cc4ccc(Cl)cc4C3)cc(-c3cn[nH]c3)n2n1` [Compound 62, 5-(5-chloroisoindolin-2-yl)-N-(3-hydroxyphenyl)-7-(1H-pyrazol-4-yl)pyrazolo[1,5-a]pyrimidine-2-carboxamide]: the IC50 stood at 5.22 µM.
As for `COc1cccc(NC(=O)c2cc3nc(N4Cc5ccc(F)cc5C4)cc(-c4cn[nH]c4)n3n2)c1` [Compound 63, 5-(5-fluoroisoindolin-2-yl)-N-(3-methoxyphenyl)-7-(1H-pyrazol-4-yl)pyrazolo[1,5-a]pyrimidine-2-carboxamide], the IC50 is 4.65 µM.
`O=C(Nc1cccc(O)c1)c1cc2nc(N3Cc4ccc(F)cc4C3)cc(-c3cn[nH]c3)n2n1` [Compound 64, 5-(5-fluoroisoindolin-2-yl)-N-(3-hydroxyphenyl)-7-(1H-pyrazol-4-yl)pyrazolo[1,5-a]pyrimidine-2-carboxamide]: the IC50 was found to be 9.59 µM.
As for `COc1cccc(NC(=O)c2nn3c(-c4cn[nH]c4)cc(N4Cc5ccccc5C4)nc3c2C)c1` [Compound 66, 5-(isoindolin-2-yl)-N-(3-methoxyphenyl)-3-methyl-7-(1H-pyrazol-4-yl)pyrazolo[1,5-a]pyrimidine-2-carboxamide], the IC50 is 19.7 µM.
Consider `Cc1c(C(=O)Nc2cccc(OC(F)(F)F)c2)nn2c(-c3cn[nH]c3)cc(N3Cc4ccccc4C3)nc12` [Compound 67, 5-(isoindolin-2-yl)-3-methyl-7-(1H-pyrazol-4-yl)-N-(3-(trifluoromethoxy)phenyl)pyrazolo[1,5-a]pyrimidine-2-carboxamide], for which the IC50 was found to be 5.94 µM.
In the case of `Cc1c(C(=O)Nc2cccc(O)c2)nn2c(-c3cn[nH]c3)cc(N(C)Cc3ccccc3)nc12` [Compound 68, 5-(benzyl(methyl)amino)-N-(3-hydroxyphenyl)-3-methyl-7-(1H-pyrazol-4-yl)pyrazolo[1,5-a]pyrimidine-2-carboxamide], the IC50 was 5.76 µM.
As for `COc1cccc(NC(=O)c2nn3c(-c4cn[nH]c4)cc(N(C)Cc4ccccc4)nc3c2C)c1` [Compound 69, 5-(benzyl(methyl)amino)-N-(3-methoxyphenyl)-3-methyl-7-(1H-pyrazol-4-yl)pyrazolo[1,5-a]pyrimidine-2-carboxamide], the IC50 stood at 1.9 µM.
As to `Cc1c(C(=O)Nc2cccc(OC(F)(F)F)c2)nn2c(-c3cn[nH]c3)cc(N(C)Cc3ccccc3)nc12` [Compound 70, 5-(benzyl(methyl)amino)-3-methyl-7-(1H-pyrazol-4-yl)-N-(3-(trifluoromethoxy)phenyl)pyrazolo[1,5-a]pyrimidine-2-carboxamide], the IC50 is 5.87 µM.
Take `CC(C)c1c(C(=O)Nc2cccc(O)c2)nn2c(-c3cn[nH]c3)cc(N3Cc4ccccc4C3)nc12` [Compound 71, N-(3-hydroxyphenyl)-5-(isoindolin-2-yl)-3-isopropyl-7-(1H-pyrazol-4-yl)pyrazolo[1,5-a]pyrimidine-2-carboxamide]: the IC50 came out at 3.15 µM.
In the case of `COc1cccc(NC(=O)c2nn3c(-c4cn[nH]c4)cc(N4Cc5ccccc5C4)nc3c2C(C)C)c1` [Compound 72, 5-(isoindolin-2-yl)-3-isopropyl-N-(3-methoxyphenyl)-7-(1H-pyrazol-4-yl)pyrazolo[1,5-a]pyrimidine-2-carboxamide], the IC50 worked out at 2.91 µM.
With `CC(C)c1c(C(=O)Nc2cccc(OC(F)(F)F)c2)nn2c(-c3cn[nH]c3)cc(N3Cc4ccccc4C3)nc12` [Compound 73, 5-(isoindolin-2-yl)-3-isopropyl-7-(1H-pyrazol-4-yl)-N-(3-(trifluoromethoxy)phenyl)pyrazolo[1,5-a]pyrimidine-2-carboxamide], the 50% inhibitory concentration (IC50) came out at 4.91 µM.
On to `CC(C)c1c(C(=O)Nc2cccc(O)c2)nn2c(-c3cn[nH]c3)cc(N(C)Cc3ccccc3)nc12` [Compound 74, 5-(benzyl(methyl)amino)-N-(3-hydroxyphenyl)-3-isopropyl-7-(1H-pyrazol-4-yl)pyrazolo[1,5-a]pyrimidine-2-carboxamide], for which the half-maximal inhibitory concentration (IC50) stood at 1.34 µM.
`COc1cccc(NC(=O)c2nn3c(-c4cn[nH]c4)cc(N(C)Cc4ccccc4)nc3c2C(C)C)c1` [Compound 75, 5-(benzyl(methyl)amino)-3-isopropyl-N-(3-methoxyphenyl)-7-(1H-pyrazol-4-yl)pyrazolo[1,5-a]pyrimidine-2-carboxamide]: the IC50 was determined as 5.68 µM.
On to `CC(C)c1c(C(=O)Nc2cccc(OC(F)(F)F)c2)nn2c(-c3cn[nH]c3)cc(N(C)Cc3ccccc3)nc12` [Compound 76, 5-(benzyl(methyl)amino)-3-isopropyl-7-(1H-pyrazol-4-yl)-N-(3-(trifluoromethoxy)phenyl)pyrazolo[1,5-a]pyrimidine-2-carboxamide], for which the 50% inhibitory concentration (IC50) came to 11.6 µM.
On to `COc1cccc(NC(=O)c2nn3c(-c4cn[nH]c4)cc(N4Cc5ccc(F)cc5C4)nc3c2C(C)C)c1` [Compound 77, 5-(5-fluoroisoindolin-2-yl)-3-isopropyl-N-(3-methoxyphenyl)-7-(1H-pyrazol-4-yl)pyrazolo[1,5-a]pyrimidine-2-carboxamide], for which the IC50 was found to be 11 µM.
`CC(=O)Nc1cccc(NC(=O)c2nn3c(-c4cn[nH]c4)cc(N4Cc5ccc(F)cc5C4)nc3c2C(C)C)c1` [Compound 78, N-(3-acetamidophenyl)-5-(5-fluoroisoindolin-2-yl)-3-isopropyl-7-(1H-pyrazol-4-yl)pyrazolo[1,5-a]pyrimidine-2-carboxamide]: the IC50 was 3.03 µM.

Broadly, the IC50 is the concentration that inhibits the measured activity by half.
